The nature of data set [1]: Moisturizing properties of cosmetic preparation compositions (massage oil, panel). On the set-up: key: Good: Very soft and moistened touch was felt.; Moderate: Soft and moistened touch was felt.; Poor: No moistened touch was felt. In kind it is in vivo, human. The note with it: neat cosmetic preparation composition (massage oil); 0.05 g, rubbed twenty times, wiped; seven panelists. Here is the method:
In Example 12, the PDO diisostearate obtained from Synthesis Example 1 was used as a cosmetic preparation composition (moisturizing ingredient) for a moisturizing cosmetic preparation (massage oil), and the moisturizing properties and the feeling of use thereof were evaluated.
The insides of the arms of seven panelists were washed with soap and water, and in addition, the washed surfaces were wiped with ethanol and naturally dried. Thereafter, each of the thus washed surfaces was evenly divided into eight equal areas, to which 0.05 g of the respective cosmetic preparation compositions of Example 12, and Comparative Examples 4 to 7 and 4A to 4C, was applied and massage was done by gently rubbing with a finger twenty times. Thereafter, the area was wiped with a dry cloth. On completion of this wiping, the moisturizing properties and the feeling of use of the respective cosmetic preparation compositions were evaluated in accordance with the same criteria as those of the moisturizing gels of Examples 6 to 8 mentioned above.

Data set [2] is described as follows: Viscosity by stress-controlled rheometer at 20° C. In kind it is physicochemical. Here is the method:
(§1) Next, the viscosity and the friction coefficient of the cosmetic preparation compositions of Example 12 and Comparative Examples 4 to 7 and 4A to 4C were measured.
The viscosity was measured by using a stress-controlled rheometer (Product No. RheoStress RS1, with a C60/2 Ti sensor, a product of Haake Company) at 20° C.

Data set [3] in a line: Friction coefficient on artificial leather (friction tester). In kind it is physicochemical. The following applies: 5 μL on artificial leather, pressure of 100 g. The method, then:
as §1
The friction coefficient was measured by such a way that: 5 μL of each cosmetic preparation composition was applied to the surface of an artificial leather (Product Name: Supplale, a product of Idemitsu Technofine Co., Ltd.), and the applied surface was measured for the friction coefficient and the change in the value of the friction coefficient, by using a friction tester (Type: TL201Ts, a product of Trinity-Lab Co., Ltd.) with a pressure of 100 g.

Data set [4] in a line: Cleansing properties: removal of ink of an oil paint pen from the skin (panel). In kind it is in vivo, human. The following applies: black oil paint pen line on inside of arm, rubbed thirty times at about 200 g; seven panelists. Here is the method:
In Example 13, the cleansing properties and the low irritation properties of the PDO-C8/C10 diester obtained from Synthesis Example 2 as a cosmetic preparation composition for a cosmetic preparation to be used for the purpose of removing an ink of an oil paint pen (ink remover ingredient) from the skin, were evaluated. The insides of the arms of seven panelists were washed with soap and water, and in addition, the washed surfaces were wiped with ethanol and naturally dried. Thereafter, using a black oil paint pen (Product Name: […] product of Zebra Co., Ltd.), a line was painted respectively on the washed surfaces of the insides of their arms. Next, the painted line was evenly divided into seven equal areas. […] From the proportion of the line painted with the oil paint pen which had been able to be removed by this removal operation, the cleansing properties of the respective cosmetic preparation compositions as an ink remover ingredient were evaluated in accordance with the following criteria. The results of their averages are shown in Table 14. <Evaluation Criteria of Cleansing Properties> Excellent: High cleansing properties, meaning that a proportion of 75 to 100% in the line painted with the oil paint pen was able to be removed. Good: Relatively high cleansing properties, meaning that a proportion of 50 to 75% in the line painted with the oil paint pen was able to be removed. Moderate: Some cleansing properties, meaning that only a proportion of 25 to 50% in the line painted with the oil paint pen was able to be removed. Poor: Weak cleansing properties, meaning that only a proportion of 0 to 25% in the line painted with the oil paint pen was able to be removed.

The nature of data set [5]: Low irritation properties: 24 hours airtight application with Finn Chamber (panel). In kind it is in vivo, human. Here is the method:
Moreover, the low irritation properties of the respective cosmetic preparation compositions as an ink remover ingredient were evaluated in the following manner. The insides of the arms of seven panelists were washed with soap and water, and in addition, the washed surfaces were wiped with ethanol and naturally dried. Next, each of the thus washed surfaces was evenly divided into seven equal areas, to which 0.01 g of the respective cosmetic preparation compositions of Examples 13 and 13A to 13D, and Comparative Examples 8 and 9, was applied airtightly by using Finn Chamber (a product of Epitest Ltd Oy). After 24 hours, the Finn Chamber and the cosmetic preparation compositions were taken off. After 1 hour, the condition of the skin was observed. The low irritation properties of the respective cosmetic preparation compositions as an ink remover ingredient were evaluated in accordance with the following criteria. <Evaluation Criteria of Low Irritation Properties> Good: No change was found in the skin of the airtightly applied part. Moderate: A slight rash was found in the skin of the airtightly applied part.

A short description of data set [6]: Cleansing properties of industrial use cleansers: oil paint pen ink on coated steel panel. The following applies: industrial use cleanser; black oil paint pen line on coated steel panel, rubbed thirty times at about 200 g. Here is the method: The cleansing properties of the respective industrial use cleansers as an agent to remove an oil soluble colorant from a coated steel panel were evaluated in the following manner.
First, an electro-galvanized steel panel was coated with commercially available automotive paints, namely, a primer surfacer (Product Name: Primer White (a product of Musashi Holt Co., Ltd.)), a white automotive paint (Product Name: Antirust Paint (Color No. 041) (a product of Musashi Holt Co., Ltd.)), and a clear paint (Product Name: Topcoat Clear (a product of Musashi Holt Co., Ltd.)), by spraying according to the usage instruction of each product, and dried at 25° C. for 24 hours. By so doing, a coated steel panel for the test was obtained.
Next, using a black oil paint pen (Product Name: Mckee Care, a product of Zebra Co., Ltd.), a line was painted on the surface of the coated steel panel, and dried at 25° C. for 24 hours.
Subsequently, the painted line was evenly divided into seven equal areas. Each area was rubbed with an absorbent cotton that had been impregnated with, but to a degree which would not allow a leakage of, the industrial use cleanser of Examples 14, 14A, and 14B, or the oil agent of Comparative Examples 10, 11, 11A, and 11B, while loading a pressure of about 200 g in a reciprocating manner thirty times. From the proportion of the ink of the line painted with the oil paint pen which had been able to be removed by this removal operation, the cleansing properties of the respective industrial use cleansers of Examples 14, 14A, and 14B, or the respective oil agents of Comparative Examples 10, 11, 11A, and 11B, as the agent to remove the oil soluble colorant, were evaluated by eye in accordance with the following criteria.
<Evaluation Criteria of Cleansing Properties>
Excellent: High cleansing properties, meaning that a proportion of 75 to 100% in the line painted with the oil paint pen on the coated steel panel was able to be removed.
Good: Relatively high cleansing properties, meaning that a proportion of 50 to 75% in the line painted with the oil paint pen on the coated steel panel was able to be removed.
Moderate: Some cleansing properties, meaning that only a proportion of 25 to 50% in the line painted with the oil paint pen on the coated steel panel was able to be removed.
Poor: Weak cleansing properties, meaning that only a proportion of 0 to 25% in the line painted with the oil paint pen on the coated steel panel was able to be removed.
The cleansing properties and the low corrosion properties of the respective industrial use cleansers as an agent to remove an oil soluble colorant for a coated steel panel were evaluated in the same manner as those of the industrial use cleanser in Example 14. […]

Setting [7] is: 0.01 g airtight in Finn Chamber 24 hours, skin observed 1 hour after removal, seven panelists.

`CCCCCCCCCCCCCCCCCC(=O)OCCCOC(=O)CCCCCCCCCCCCCCCCC` [Comparative Example 4A, PDO distearate]: the Moisturizing properties entry in data set [1] is listed as “Moderate”. For the same molecule, the “Viscosity (mPa · s) (20° C.)” value in data set [2] is recorded as “Not measurable”.

Consider `CC(CCC(C(=O)OCCCOC(=O)C(CCC(C)CC(C)(C)C)C(C)CC(C)(C)C)C(C)CC(C)(C)C)CC(C)(C)C` (stereo not drawn) [Comparative Example 4B], for which, in data set [3], the “Changed value of friction coefficient” value is reported as 0.0080 and the Friction coefficient is 0.170. The Moisturizing properties entry in data set [1] is recorded as “Good”. In data set [2], the “Viscosity (mPa · s) (20° C.)” value is given as 1003 mPa · s.

Consider `CC(C)CCCC(C)CCCC(C)CCCCC(C)CCCC(C)CCCC(C)C` (stereo not drawn) [Comparative Example 5, squalane], for which, in data set [3], the “Changed value of friction coefficient” value amounted to 0.0062 and the Friction coefficient is reported as 0.155. The Moisturizing properties entry in data set [1] was “Good”. For the same molecule, in data set [2], the “Viscosity (mPa · s) (20° C.)” value amounted to 36.0 mPa · s.

On to `CC(C)CCCCCCOC(=O)CCCCCC(C)C` [Comparative Example 8, isononyl isononanoate, reference compound], for which the Cleansing properties result in data set [4] was “Good (Relatively high cleansing properties, meaning that a proportion of 50 to 75% in the line painted with the oil paint pen was able to be removed.)”. The “Condition of the skin of the airtightly applied part” value in data set [5] (0.01 g airtight in Finn Chamber 24 hours, skin observed 1 hour after removal) is “a notable rash was found”. The Low irritation properties result in data set [5] (setting [7]) is given as “Poor”.

For the molecule `CCO` [Comparative Example 10, ethanol, reference compound], in data set [6], the Cleansing properties entry is listed as “Excellent (High cleansing properties, meaning that a proportion of 75 to 100% in the line painted with the oil paint pen on the coated steel panel was able to be removed.)”.

For `CCCCCCCC(=O)OCCCOC(=O)CCCCCCC` [Example 13A, PDO-di-n-Octanoic Acid Ester], the Cleansing properties entry is on record as “Excellent (High cleansing properties, meaning that a proportion of 75 to 100% in the line painted with the oil paint pen was able to be removed.)” in data set [4] and “Excellent (High cleansing properties, meaning that a proportion of 75 to 100% in the line painted with the oil paint pen on the coated steel panel was able to be removed.)” in data set [6]. In data set [5] (setting [7]), the Low irritation properties entry is listed as “Moderate”.

Consider `CCCCCCCCCC(=O)OCCCOC(=O)CCCCCCCCC` [Example 13D, PDO-di-n-decanoic acid ester], for which the Cleansing properties result in data set [4] is on record as “Poor (Weak cleansing properties, meaning that only a proportion of 0 to 25% in the line painted with the oil paint pen was able to be removed.)”; in data set [6] it was “Poor (Weak cleansing properties, meaning that only a proportion of 0 to 25% in the line painted with the oil paint pen on the coated steel panel was able to be removed.)”. In data set [5] (in vivo), the Low irritation properties entry is given as “Good”.

Take PDO-C8/C10 diester [Example 13]: the Cleansing properties entry in data set [4] is reported as “Excellent (High cleansing properties, meaning that a proportion of 75 to 100% in the line painted with the oil paint pen was able to be removed.)”; in data set [6], “Excellent (High cleansing properties, meaning that a proportion of 75 to 100% in the line painted with the oil paint pen on the coated steel panel was able to be removed.)”. For the same molecule, the Low irritation properties entry in data set [5] (setting [7]) was “Good”.

Turning to PDO-C8/C10=25:75 diester [Example 13C], the Cleansing properties result in data set [4] is reported as “Moderate (Some cleansing properties, meaning that only a proportion of 25 to 50% in the line painted with the oil paint pen was able to be removed.)”; in data set [6], “Moderate (Some cleansing properties, meaning that only a proportion of 25 to 50% in the line painted with the oil paint pen on the coated steel panel was able to be removed.)”. Further, in data set [5] (setting [7]), the Low irritation properties entry is “Good”.

For PDO-C8/C10=50:50 diester [Example 13B], the Cleansing properties entry in data set [4] is reported as “Good (Relatively high cleansing properties, meaning that a proportion of 50 to 75% in the line painted with the oil paint pen was able to be removed.)”; in data set [6], “Good (Relatively high cleansing properties, meaning that a proportion of 50 to 75% in the line painted with the oil paint pen on the coated steel panel was able to be removed.)”. In addition, the Low irritation properties result in data set [5] (setting [7]) was “Good”.

As for “PDO-Garbett isostearic acid diester [Comparative Example 4C]”, in data set [3], the “Changed value of friction coefficient” value was 0.0056 and the Friction coefficient was found to be 0.147. Moreover, the Moisturizing properties result in data set [1] is “Poor”. Moreover, the “Viscosity (mPa · s) (20° C.)” value in data set [2] worked out at 57.5 mPa · s.

These data come from US20110306665A1, “COSMETIC PREPARATION, METHOD FOR PRODUCING SAME, COMPOSITION FOR COSMETIC PREPARATIONS, COSMETIC PREPARATION CONTAINING THE COMPOSITION FOR COSMETIC PREPARATIONS AND METHOD FOR PRODUCING SAME, AND CLEANSER FOR INDUSTRIAL USE” (The Nisshin OilliO Group, Ltd., priority 2009, published 2011).
